According to publication PMC3527451, “A Pilot Randomized, Placebo Controlled, Double Blind Phase I Trial of the Novel SIRT1 Activator SRT2104 in Elderly Volunteers” (PLoS ONE, 2012):
“Also recorded” adds a separate entry of the source.

Key:
[1] = Plasma pharmacokinetics of SRT2104, once daily oral dosing for 28 days in elderly volunteers; type: in vivo, human; conditions: for AUC(0-∞), Geometric Least Square Mean: Day 1, AUC(0-∞); for AUC(0-t)_D, dose-normalized Geometric Least Square Mean / AUC(0-∞)_D, dose-normalized Geometric Least Square Mean / Cmax_D, dose-normalized Geometric Least Square Mean / AUC(0-τ)_D, dose-normalized Geometric Least Square Mean: normalized to 0.5 g
Description: This was a phase I, single-center, double-blind, randomized, placebo-controlled, parallel-arm study to assess the safety, tolerability, pharmacokinetic and initial pharmacodynamic properties of […] Pharmaceuticals, Cambridge, MA, USA) administered for the first time to male and female elderly volunteers 60 to 80 years of age. Volunteers were enrolled between 01 Oct 2009 and 5 Feb 2010. […] The selection of the doses investigated in this study was based upon safety and pharmacokinetic data obtained from a previous clinical study involving SRT2104 [19]. Suitability of participants was defined on the basis of a medical history, physical examination, vital signs, electrocardiogram and laboratory measurements. Subjects were required to have normal fasting glucose levels (4.4 to 6.0 mmol/L) at screening and a body mass index of at least 18 kg/m^2 and no greater than 30 kg/m^2. […] Subjects were deemed ineligible if they participated in any clinical trial with an investigative medicinal product within the past three months prior to the first dose in the current study, had been exposed to more than three new chemical entities within 12 months of enrollment, or used other concomitant medications and herbal products in the previous 3 months that in the opinion of the investigator could interfere with the study procedures or compromise subject safety. Additional exclusions included: women of childbearing potential and non-sterile men, unless they agreed to use acceptable method of contraception; history of alcoholism or drug abuse (including a positive pre-study drug/alcohol test at screening); use of tobacco or nicotine products; history of complications when donating blood or known relative inaccessibility of veins for venipuncture; donation of blood within three months of enrolment; history of significant drug or other allergies. Participants were asked to maintain their usual level of physical activity for the duration of the study. During the treatment phase of the study (days 1 to 28 inclusive), test material (SRT2104 or placebo) was supplied as 250 mg capsules and was administered at approximately the same time every morning, approximately 15 minutes following consumption of a standardized meal (Ensure Plus®, a high energy, high protein liquid meal replacement product providing approximately 650 kcal with approximately 30% of calories derived from fat). Subjects were not permitted to consume additional calories for at least 1-2 hours after dosing, although water was permitted ad libitum. Subjects were also instructed to refrain from caffeine and alcohol for 24 hours prior to screening and during assessments visits. The test material was administered within the investigation clinical unit on the days when serial pharmacokinetic sampling was performed (days 1-2 and 28-29) and at home on the remaining days (days 3-27). A diary card was provided to volunteers to confirm daily consumption of the standardized meal, as well as time of dose and number of capsules taken. Missing doses were recorded. Pharmacokinetic samples were collected through 24 hours post-dose on the first and last day of the dosing period (immediately prior to dosing and at 15, 30 minutes and 1, 2, 3, 4, 8, 12 and 24 hours post-dose). Blood samples for pharmacokinetic analysis were collected in pre-labelled lithium heparin heparin Vacutainers for pharmacokinetic analysis (∼4 mL per draw). Each sample was separated by centrifugation at 1500×g and 4°C for 10 minutes. Two equal aliquots of plasma were transferred to polypropylene vials labelled identically to the original blood sample and stored at approximately -20°C for subsequent analysis of plasma SRT2104 concentration. The bio-analysis was performed by Simbec Research Ltd, […], South Wales, UK. Pharmacokinetic parameters for SRT2104 were derived from non-compartmental methods using WinNonLin v5.2 (Pharsight Corporation, Mountain View, CA, USA). […]

[2] = tested on: SIRT1; parameters: method as in JC Milne et al, 2007; conditions: lowering of the Km for acetylated protein substrate; ref JC Milne et al, 2007; cited from earlier work
[3] = 0.5 or 2.0 g once daily, abstract summary

## Cc1nc(-c2cccnc2)sc1C(=O)Nc1ccccc1-c1cn2c(CN3CCOCC3)csc2n1 [SRT2104]
[1]; 0.5 g/day group
  Tmax (mean peak plasma concentration): 2 to 4 h
  between-subject variability for AUC(0–24), geometric mean CV: 140%
[1]; 0.5 g/day group, after first administration
  t1/2 of one subject: 29.7 h
[1]; 0.5 g/day group, after repeated administrations
  t1/2 of one subject: 28.3 h
[1]; 0.5 g/day, Day 1
  AUC(0-t), Geometric Least Square Mean: 1950.07 ng·h/mL
  Cmax, Geometric Least Square Mean: 326.22 ng/mL
[1]; 0.5 g/day
  AUC(0-∞), Geometric Least Square Mean: 2503.70 ng·h/mL
[1]; 0.5 g/day, Day 1, geometric mean
  AUC0-∞: 1790.8 ng·h/mL
[1]; 0.5 g/day, Day 1, mean
  AUC0-t: 1872.9 ng·h/mL
  CL/F: 594.2 L/h
  Cmax: 343.4 ng/mL
  t1/2: 14.9 h
[1]; 0.5 g/day, Day 1, median
  tmax: 3.0 h
[1]; 0.5 g/day, Day 28
  AUC(0-t), Geometric Least Square Mean: 1610.10 ng·h/mL
  Cmax, Geometric Least Square Mean: 199.12 ng/mL
[1]; 0.5 g/day, Day 28, geometric mean
  AUC0-∞: 2687.8 ng·h/mL
[1]; 0.5 g/day, Day 28, mean
  AUC0-t: 2280.4 ng·h/mL
  CL/F: 566.9 L/h
  Cmax: 373.4 ng/mL
  t1/2: 17.5 h
[1]; 0.5 g/day, Day 28, median
  tmax: 3.0 h
[1]; [3]
  Mean Tmax: 2 to 4 h
  elimination half-life: 15 to 20 h
[1]; 0.5 to 2.0 g/day
  dose proportionality of exposure (Cmax, AUC): less than dose-proportionally; also recorded: less than dose proportional increase in exposure
[1]; 2.0 g/day group
  between-subject variability for AUC(0–24), geometric mean CV: 102%
[1]; 2.0 g/day group, after the first dose
  Tmax (apparent mean rise to peak concentration): 2 to 8 h
[1]; 2.0 g/day, Day 1
  AUC(0-t), Geometric Least Square Mean: 1743.14 ng·h/mL
  Cmax, Geometric Least Square Mean: 301.28 ng/mL
[1]; 2.0 g/day
  AUC(0-∞), Geometric Least Square Mean: 1788.42 ng·h/mL
[1]; 2.0 g/day, Day 1, geometric mean
  AUC0-∞: 2073.5 ng·h/mL
[1]; 2.0 g/day, Day 1, mean
  AUC0-t: 3249.2 ng·h/mL
  CL/F: 1624.4 L/h
  Cmax: 477.6 ng/mL
  t1/2: 15.1 h
[1]; 2.0 g/day, Day 1, median
  tmax: 3.0 h
[1]; 2.0 g/day, Day 28
  AUC(0-t), Geometric Least Square Mean: 3577.50 ng·h/mL
  Cmax, Geometric Least Square Mean: 389.50 ng/mL
[1]; 2.0 g/day, Day 28, geometric mean
  AUC0-∞: 7729.6 ng·h/mL
[1]; 2.0 g/day, Day 28, mean
  AUC0-t: 4797.4 ng·h/mL
  CL/F: 789.6 L/h
  Cmax: 572.4 ng/mL
  t1/2: 21.6 h
[1]; 2.0 g/day, Day 28, median
  tmax: 3.0 h
[1]; 2.0 g/day, repeat administration
  increase in mean AUC(0–24) relative to the first day of dosing: approximately two-fold increases
[1]; Day 1, 0.5 g/day
  AUC(0-t)_D, dose-normalized Geometric Least Square Mean: 1297.86 ng·h/mL
  AUC(0-∞)_D, dose-normalized Geometric Least Square Mean: 1754.57 ng·h/mL
  Cmax_D, dose-normalized Geometric Least Square Mean: 215.74 ng/mL
[1]; Day 1, 2.0 g/day
  AUC(0-t)_D, dose-normalized Geometric Least Square Mean: 516.59 ng·h/mL
  AUC(0-∞)_D, dose-normalized Geometric Least Square Mean: 504.43 ng·h/mL
  Cmax_D, dose-normalized Geometric Least Square Mean: 69.64 ng/mL
[1]; Day 1, dose proportionality
  AUC(0-t)_D, % Ratio (90% C.I.) 2.0 g/0.5 g: 39.80 (14.39–110.07) %
  AUC(0-∞)_D, % Ratio (90% C.I.) 2.0 g/0.5 g: 28.75 (9.56–86.49) %
  Cmax_D, % Ratio (90% C.I.) 2.0 g/0.5 g: 32.28 (10.41–100.15) %
[1]; Day 28, 0.5 g/day
  AUC(0-t)_D, dose-normalized Geometric Least Square Mean: 1548.09 ng·h/mL
  AUC(0-τ)_D, dose-normalized Geometric Least Square Mean: 1548.74 ng·h/mL
  AUC(0-∞)_D, dose-normalized Geometric Least Square Mean: 2636.12 ng·h/mL
  Cmax_D, dose-normalized Geometric Least Square Mean: 206.06 ng/mL
[1]; Day 28, 2.0 g/day
  AUC(0-t)_D, dose-normalized Geometric Least Square Mean: 911.01 ng·h/mL
  AUC(0-τ)_D, dose-normalized Geometric Least Square Mean: 909.85 ng·h/mL
  AUC(0-∞)_D, dose-normalized Geometric Least Square Mean: 1903.42 ng·h/mL
  Cmax_D, dose-normalized Geometric Least Square Mean: 96.83 ng/mL
[1]; Day 28, dose proportionality
  AUC(0-t)_D, % Ratio (90% C.I.) 2.0 g/0.5 g: 58.85 (25.18–137.51) %
  AUC(0-τ)_D, % Ratio (90% C.I.) 2.0 g/0.5 g: 58.75 (25.10–137.52) %
  AUC(0-∞)_D, % Ratio (90% C.I.) 2.0 g/0.5 g: 72.21 (33.02–157.88) %
  Cmax_D, % Ratio (90% C.I.) 2.0 g/0.5 g: 46.99 (15.44–142.99) %
[1]; human, in vivo
  Cmax, AUC(0-τ) and AUC(0–24) exposures in the 2.0 g/day group compared to the 0.5 g/day group: approximately two-fold higher or less
  differences in exposure between men and women: No apparent differences in exposure
[1]; mono-exponential decline, both doses
  apparent half-life: approximately 15 hours
[2]
  increase in SIRT1 activity: approximately two-fold increase in activity
